Reference: patent US5110825A, “Benzofuran derivative” (Shionogi & Co., Ltd., priority 1989, dated 1992)
pIC50: −log10 of the molar value.

Target: T1, HMG-CoA reductase (Rattus norvegicus, UniProt P51639)
T1 sequence (P51639 1-887): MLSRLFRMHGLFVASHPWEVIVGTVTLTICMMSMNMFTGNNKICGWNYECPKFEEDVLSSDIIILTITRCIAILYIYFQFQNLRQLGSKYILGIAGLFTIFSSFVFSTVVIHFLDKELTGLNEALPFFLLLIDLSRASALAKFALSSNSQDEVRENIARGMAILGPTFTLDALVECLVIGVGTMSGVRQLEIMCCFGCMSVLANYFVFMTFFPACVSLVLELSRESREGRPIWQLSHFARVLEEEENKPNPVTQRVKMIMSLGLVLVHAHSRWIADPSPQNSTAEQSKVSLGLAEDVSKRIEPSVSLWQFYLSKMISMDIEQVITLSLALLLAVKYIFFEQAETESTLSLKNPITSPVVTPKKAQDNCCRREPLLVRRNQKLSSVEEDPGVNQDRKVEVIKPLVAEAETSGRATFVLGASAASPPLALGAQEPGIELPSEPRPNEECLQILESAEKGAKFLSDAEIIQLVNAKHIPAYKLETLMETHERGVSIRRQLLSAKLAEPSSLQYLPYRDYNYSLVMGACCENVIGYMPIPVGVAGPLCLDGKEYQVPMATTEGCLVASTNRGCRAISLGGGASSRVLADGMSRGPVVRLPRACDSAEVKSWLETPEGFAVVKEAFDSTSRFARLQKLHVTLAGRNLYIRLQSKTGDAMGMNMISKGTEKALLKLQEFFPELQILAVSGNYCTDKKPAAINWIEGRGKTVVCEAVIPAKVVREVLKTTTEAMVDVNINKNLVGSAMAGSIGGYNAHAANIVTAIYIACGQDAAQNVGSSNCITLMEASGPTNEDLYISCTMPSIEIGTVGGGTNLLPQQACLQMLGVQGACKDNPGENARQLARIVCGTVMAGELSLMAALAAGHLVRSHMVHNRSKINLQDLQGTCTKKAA
Assay: HMG-CoA reductase inhibitory activity (rat liver microsome)
Type: biochemical, rat (Sprague-Dawley)
Details: [3-14C]HMG-CoA, 37° C., 30 minutes

pIC50 | Structure (SMILES)
6.13 | CC(C)c1oc2cccc(-c3ccc(F)cc3)c2c1/C=C/[C@@H](O)C[C@@H](O)CC(=O)O
7.05 | Cn1nnnc1C(/C=C/[C@@H](O)C[C@@H](O)CC(=O)O)=C(\c1ccc(F)cc1)c1cc2ccccc2o1 (relative stereo)
7.05 | Cn1nnnc1C(/C=C/[C@@H](O)C[C@@H](O)CC(=O)O)=C(/c1ccc(F)cc1)c1cc2ccccc2o1 (relative stereo)
6.96 | CC(C)c1c(/C=C/[C@@H](O)C[C@@H](O)CC(=O)O)oc2c(-c3ccc(F)cc3)cccc12 (relative stereo) [Ia-5, Sodium (3R*,5S*)-(E)-7-[3-isopropyl-7-(4-fluorophenylbenzofuran-2-yl]-3,5-dihydroxy-6-heptenate]

The remaining lines, values behind:

Structure (SMILES) | pIC50
CC(C)c1cccc2c(-c3ccc(F)cc3)c(/C=C/[C@@H](O)C[C@@H](O)CC(=O)O)oc12 (relative stereo) [Ia-2, Sodium (3R*,5S*)-(E)-7-[3-(4-fluorophenyl)-7-isopropylbenzofuran-2-yl]-3,5-dihydroxy-6-heptenate] | 6.05
CNc1ccc(-c2ccc(F)cc2)c2c(/C=C/[C@@H](O)C[C@@H](O)CC(=O)O)c(C(C)C)oc12 (relative stereo) [Ia-15, Sodium (3R*,5S*)-(E)-7-[4-(4-fluorophenyl)-2-isopropyl-7-methylamino-3-yl]-3,5-dihydroxy-6-heptenate] | 7.20
CC(=O)N(C)c1ccc(-c2ccc(F)cc2)c2c(/C=C/[C@@H](O)C[C@@H](O)CC(=O)O)c(C(C)C)oc12 (relative stereo) [Ia-14, Sodium (3R*,5S*)-(E)-7-[7-(N-acetyl-N-methylamino)-4-(4-fluorophenyl)-2-isopropyl-3-yl]-3,5-dihydroxy-6-heptenate] | 7.70
Cc1cc(-c2c(CC[C@@H](O)C[C@@H](O)CC(=O)O)oc3c(C(C)C)cccc23)ccc1F (relative stereo) [Ia-11] | 6.66
Cc1ccc(C(C)C)c2c(/C=C/[C@@H](O)C[C@@H](O)CC(=O)O)c(-c3ccc(F)cc3)oc12 (relative stereo) | 6.57
Cc1cc(-c2ccc3occ(C(C)C)c3c2/C=C/[C@@H](O)C[C@@H](O)CC(=O)O)ccc1F (relative stereo) | 7.49
